Results published in patent US20210231673A1, “METHODS AND COMPOSITIONS FOR DETECTION AND QUANTIFICATION OF SMALL MOLECULES AND OTHER ANALYTES” (President and Fellows of Harvard College, priority 2018, published 2021).

How the values were obtained:
Format in all cases: binding
[1] = Conventional competitive ELISA for cortisol (BSA-cortisol coated plate); details: cortisol concentration causing 50% inhibition of maximum response
Procedure: The high-binding 96-well microtiter plate was coated with BSA-cortisol conjugate in PBS (1 μg/mL, 100 μL/well) overnight at 4° C. After washing, the plate was blocked with 1% BSA in PBS (200 μL/well) for 1 h at room temperature and subsequently washed. Next, biotinylated anti-cortisol (10 nM, 10 μL/well) in PBS and serial concentrations of cortisol standard (0, 0.001, 0.01, 0.1, 1, 10, 100 and 1,000 ng/mL,100 μL/well) prepared in Sample Diluent were added to the wells. The immunoreaction was allowed to proceed for 1 h. After washing, the plate was incubated with streptavidin-horseradish peroxidase (HRP((2 nM, 100 μL/well) for 30 min. After another washing, 3,3′,5,5′-tetramethylbenzidine (TMB) substrate (100 μL/well) was added and the plate was incubated for 15 min. Next, 50 μL of 1 mol/L hydrochloric acid was added to each well to stop the enzymatic reaction. Finally, the optical density (OD) was recorded at 450 nm on a Tecan Infinite M200 Plate Reader.
(§1) Standard curves were obtained by plotting the signal responses (AEB and OD) against the logarithm of analyte concentrations using Origin software (Origin 9.5). […] The limit of detection (LOD) was calculated as three standard deviations (SDs) above the background. […]

[2] = Competitive single molecule array assay, BSA-cortisol MBs (two-step, single-plex); details: single-plex comparison to IL-6/cortisol multiplex
Procedure: A two-step assay configuration was chosen when hapten-BSA-coated beads were used. Specifically, hapten-BSA-coated capture beads were diluted in Bead Diluent (Quanterix) to a concentration of 5,000 beads/μL. Biotinylated detector antibodies were diluted in Detector Diluent (Quanterix) to the desired concentration (1 pM for anti-cortisol antibodies, and 1 nM for anti-PGE2 antibodies). SβG concentrate was diluted to 200 pM in SβG Diluent (Quanterix). Cortisol and PGE2 standards were serially diluted to desired concentrations in Sample Diluent. The reagents including beads, detector, and SβG were placed in plastic bottles (Quanterix). The samples were loaded onto a 96-well plate (Quanterix). […] Images of the arrays were analyzed and AEB (average enzyme per bead) values were calculated by the software in the SIMOA HD-1 ANALYZER™.
as §1
We applied single molecule array assay to small molecule detection by developing a bead-based competitive protocol. […] The beads labeled with detection probes were then labeled with an enzyme, SβG, via biotin-streptavidin interaction and detected by enzymatic readout on the SIMOA™ platform. […]

anti-cortisol antibody = assay: Two-plex single molecule array assay for PGE2 and cortisol: cortisol; details: simultaneous detection of cortisol and PGE2
Procedure: (§2) Carboxylated 2.7 μm paramagnetic beads (˜4×10^8), non-encoded for single-plex assays and dye-encoded (488 nm and 647 nm) for multiplex assays, were washed three times with 600 μL of bead wash buffer (0.1% TWEEN® 20 in 1× PBS, pH 7.4) and twice with 400 μL of MES buffer (50 mM MES, pH 6.2). 1 mg/mL EDC in MES buffer was freshly prepared and 200 μL was added to the beads and mixed well. The beads were activated on a shaker for 30 min. After activation, the beads were washed once with 200 μL of MES buffer. 200 μL of 10 mg/mL BSA or BSA-cortisol conjugate in MES buffer were added to the activated beads. The beads were incubated at room temperature with shaking for 2 h, and then washed three times with bead wash buffer. […] The beads were counted using a Beckman-Coulter MULTISIZER™.
(§3) A two-step assay configuration was chosen when hapten-BSA-coated beads were used. […] Images of the arrays were analyzed and AEB (average enzyme per bead) values were calculated by the software in the SIMOA HD-1 ANALYZER™.
as §1

[3] = system: anti-cortisol antibody (XM210); assay: Multiplex single molecule array assay for IL-6 and cortisol: cortisol (competitive); details: simultaneous detection of IL-6 and cortisol
Procedure: A two-step assay configuration was used for simultaneous detection of IL-6 and cortisol. BSA-cortisol coated beads were mixed with anti-IL6 capture beads (1:1 in number). The mixed beads were diluted to a concentration of 10,000 beads/μL. A mixture of detection antibodies, 10 pM for anti-cortisol antibody (XM210) and 1 nM for anti-IL6 detector, was prepared in Detector Diluent. A mixture of cortisol and IL-6 standards was serially diluted to desired concentrations. All the other conditions were the same as the single-plex assay.
Standard curves were obtained by plotting the signal responses (AEB and OD) against the logarithm of analyte concentrations using Origin software (Origin 9.5). The 4-parameter logistic equation y=A2+(A1−A2)/[1+(x/x0)^P] was used for curve fitting in the whole concentration range, where A1 is the maximum signal without analyte, A2 is the minimum signal at infinite concentration, p is the curve slope at the inflection point, and x0 is the IC50 (analyte concentration causing a 50% inhibition of the maximum response). The lower the IC50 is, the higher the sensitivity is. The limit of detection (LOD) was calculated as three standard deviations (SDs) above the background. All measurements were performed in triplicate. […]

anti-PGE2 antibody [4] = assay: Single-plex competitive single molecule array assay for PGE2 (BSA-PGE2 beads)
Procedure: as §2, §3, §1

anti-PGE2 antibody [5] = assay: Two-plex single molecule array assay for PGE2 and cortisol: PGE2; details: simultaneous detection of cortisol and PGE2
Procedure: as §2, §3, §1

| ELISA IC50 [1] | IC50 for cortisol, single-plex assay [2] | IC50 for cortisol, two-plex assay (anti-cortisol antibody) | IC50 for cortisol, multiplex assay with IL-6 [3] | IC50 for PGE2, single-plex assay (anti-PGE2 antibody [4]) | IC50 for PGE2, two-plex assay (anti-PGE2 antibody [5]) | SMILES |
| --- | --- | --- | --- | --- | --- | --- |
| 170.23 ng/mL | 0.54 ng/mL | 0.46 ng/mL | 0.57 ng/mL |  |  | C[C@]12CCC(=O)C=C1CC[C@@H]1[C@@H]2[C@@H](O)C[C@@]2(C)[C@H]1CC[C@]2(O)C(=O)CO [cortisol] |
|  |  |  |  | 0.37 ng/mL | 0.7 ng/mL | CCCCC[C@H](O)/C=C/[C@H]1[C@H](O)CC(=O)[C@@H]1C/C=C\CCCC(=O)O [PGE2, Prostaglandin E2] |
